# Columns and labels:
# Assay in all cases: relative viability (nuclei count vs DMSO), 5 days (fraction); higher = more cells survive
# 201T = test system: 201T
# How it was run: (§1)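 Cells from lung cancer lines were seeded into 1536-well plates and, one day later, dosed by pin tool. Treatments were either a single drug or a fixed dose of an anchor drug with five library-drug doses (not always all listed) in √10 steps. After 5 days, nuclei were stained in a one-step fixation (final 0.05% Triton X-100, 1% formaldehyde, 1 ug/ml Hoechst) and counted on 4× images, and relative viability is the treated-to-vehicle nuclei ratio, as the median of duplicate plates.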
# LOU-NH91 = test system: LOU-NH91
# How it was run: as §1
# NCI-H727 = test system: NCI-H727
# How it was run: as §1
# HCC-366 = test system: HCC-366
# How it was run: as §1
# HARA = test system: HARA
# How it was run: as §1
# ABC-1 = test system: ABC-1
# How it was run: as §1
# NCI-H2009 = test system: NCI-H2009
# How it was run: as §1
# EKVX = test system: EKVX
# How it was run: as §1
# NCI-H1666 = test system: NCI-H1666
# How it was run: as §1
# NCI-H3122 = test system: NCI-H3122
# How it was run: as §1
# NCI-H460 = test system: NCI-H460
# How it was run: as §1
# PC-14 = test system: PC-14
# How it was run: as §1
# BEN = test system: BEN
# How it was run: as §1
# NCI-H661 = test system: NCI-H661
# How it was run: as §1
# NCI-H2170 = test system: NCI-H2170
# How it was run: as §1
# NCI-H1437 = test system: NCI-H1437
# How it was run: as §1
# COR-L 105 = test system: COR-L 105
# How it was run: as §1
# CAL-12T = test system: CAL-12T
# How it was run: as §1
# LK-2 = test system: LK-2
# How it was run: as §1
# NCI-H1650 = test system: NCI-H1650
# How it was run: as §1
smiles,measurement,setting,value
Cc1sc2c(c1C)C(c1ccc(Cl)cc1)=N[C@@H](CC(=O)OC(C)(C)C)c1nnc(C)n1-2 [JQ1] + CS(=O)(=O)CCNCc1ccc(-c2ccc3ncnc(Nc4ccc(OCc5cccc(F)c5)c(Cl)c4)c3c2)o1 [Lapatinib] (partner 2 µM),relative viability,201T; first compound 0.04 µM,0.998
same,relative viability,201T; first compound 0.1265 µM,0.51
same,relative viability,201T; first compound 0.4 µM,0.974
same,relative viability,201T; first compound 1.265 µM,0.724
same,relative viability,201T; first compound 4 µM,0.548
same,relative viability,LOU-NH91; first compound 0.04 µM,0.787
same,relative viability,LOU-NH91; first compound 0.1265 µM,0.679
same,relative viability,LOU-NH91; first compound 0.4 µM,0.624
same,relative viability,LOU-NH91; first compound 1.265 µM,0.501
same,relative viability,LOU-NH91; first compound 4 µM,0.392
same,relative viability,NCI-H727; first compound 0.04 µM,0.727
same,relative viability,NCI-H727; first compound 0.1265 µM,0.695
same,relative viability,NCI-H727; first compound 0.4 µM,0.506
same,relative viability,NCI-H727; first compound 1.265 µM,0.361
same,relative viability,NCI-H727; first compound 4 µM,0.469
same,relative viability,HCC-366; first compound 0.04 µM,1.02
same,relative viability,HCC-366; first compound 0.4 µM,0.877
same,relative viability,HCC-366; first compound 1.265 µM,0.461
same,relative viability,HCC-366; first compound 4 µM,0.472
same,relative viability,HARA; first compound 0.04 µM,0.871
same,relative viability,HARA; first compound 0.1265 µM,0.559
same,relative viability,HARA; first compound 0.4 µM,0.642
same,relative viability,HARA; first compound 1.265 µM,0.317
same,relative viability,HARA; first compound 4 µM,0.165
same,relative viability,ABC-1; first compound 0.04 µM,1.11
same,relative viability,ABC-1; first compound 0.1265 µM,0.82
same,relative viability,ABC-1; first compound 0.4 µM,1.04
same,relative viability,ABC-1; first compound 1.265 µM,0.992
same,relative viability,ABC-1; first compound 4 µM,0.727
same,relative viability,NCI-H2009; first compound 0.04 µM,0.961
same,relative viability,NCI-H2009; first compound 0.1265 µM,0.412
same,relative viability,NCI-H2009; first compound 0.4 µM,0.336
same,relative viability,NCI-H2009; first compound 1.265 µM,0.285
same,relative viability,NCI-H2009; first compound 4 µM,0.251
same,relative viability,EKVX; first compound 0.04 µM,0.256
same,relative viability,EKVX; first compound 0.1265 µM,0.269
same,relative viability,EKVX; first compound 0.4 µM,0.244
same,relative viability,EKVX; first compound 1.265 µM,0.226
same,relative viability,EKVX; first compound 4 µM,0.141
same,relative viability,NCI-H1666; first compound 0.04 µM,0.697
same,relative viability,NCI-H1666; first compound 0.1265 µM,0.476
same,relative viability,NCI-H1666; first compound 0.4 µM,0.379
same,relative viability,NCI-H1666; first compound 1.265 µM,0.278
same,relative viability,NCI-H1666; first compound 4 µM,0.288
same,relative viability,NCI-H3122; first compound 0.04 µM,0.996
same,relative viability,NCI-H3122; first compound 0.1265 µM,0.974
same,relative viability,NCI-H3122; first compound 0.4 µM,0.981
same,relative viability,NCI-H3122; first compound 1.265 µM,1.02
same,relative viability,NCI-H3122; first compound 4 µM,0.876
same,relative viability,NCI-H460; first compound 0.04 µM,0.887
same,relative viability,NCI-H460; first compound 0.1265 µM,0.465
same,relative viability,NCI-H460; first compound 0.4 µM,0.536
same,relative viability,NCI-H460; first compound 1.265 µM,0.217
same,relative viability,NCI-H460; first compound 4 µM,0.169
same,relative viability,PC-14; first compound 0.04 µM,0.307
same,relative viability,PC-14; first compound 0.1265 µM,0.245
same,relative viability,PC-14; first compound 0.4 µM,0.352
same,relative viability,PC-14; first compound 1.265 µM,0.284
same,relative viability,PC-14; first compound 4 µM,0.211
same,relative viability,BEN; first compound 0.04 µM,0.676
same,relative viability,BEN; first compound 0.1265 µM,0.561
same,relative viability,BEN; first compound 0.4 µM,0.427
same,relative viability,BEN; first compound 1.265 µM,0.292
same,relative viability,BEN; first compound 4 µM,0.266
same,relative viability,NCI-H661; first compound 0.04 µM,0.402
same,relative viability,NCI-H661; first compound 0.1265 µM,0.527
same,relative viability,NCI-H661; first compound 0.4 µM,0.339
same,relative viability,NCI-H661; first compound 1.265 µM,0.27
same,relative viability,NCI-H661; first compound 4 µM,0.321
same,relative viability,NCI-H2170; first compound 0.04 µM,0.258
same,relative viability,NCI-H2170; first compound 0.1265 µM,0.252
same,relative viability,NCI-H2170; first compound 0.4 µM,0.262
same,relative viability,NCI-H2170; first compound 1.265 µM,0.229
same,relative viability,NCI-H2170; first compound 4 µM,0.254
same,relative viability,NCI-H1437; first compound 0.04 µM,0.72
same,relative viability,NCI-H1437; first compound 0.1265 µM,0.463
same,relative viability,NCI-H1437; first compound 0.4 µM,0.403
same,relative viability,NCI-H1437; first compound 1.265 µM,0.194
same,relative viability,NCI-H1437; first compound 4 µM,0.216
same,relative viability,COR-L 105; first compound 0.04 µM,0.291
same,relative viability,COR-L 105; first compound 0.1265 µM,0.279
same,relative viability,COR-L 105; first compound 0.4 µM,0.323
same,relative viability,COR-L 105; first compound 1.265 µM,0.346
same,relative viability,COR-L 105; first compound 4 µM,0.361
same,relative viability,CAL-12T; first compound 0.04 µM,0.748
same,relative viability,CAL-12T; first compound 0.4 µM,0.541
same,relative viability,CAL-12T; first compound 1.265 µM,0.383
same,relative viability,CAL-12T; first compound 4 µM,0.463
same,relative viability,LK-2; first compound 0.04 µM,0.886
same,relative viability,LK-2; first compound 0.1265 µM,0.896
same,relative viability,LK-2; first compound 0.4 µM,0.456
same,relative viability,LK-2; first compound 1.265 µM,0.177
same,relative viability,LK-2; first compound 4 µM,0.286
same,relative viability,NCI-H1650; first compound 0.04 µM,0.704
same,relative viability,NCI-H1650; first compound 0.1265 µM,0.469
same,relative viability,NCI-H1650; first compound 0.4 µM,0.316
same,relative viability,NCI-H1650; first compound 1.265 µM,0.204
same,relative viability,NCI-H1650; first compound 4 µM,0.253
